In ChEMBL document CHEMBL4354790, “Tailored therapeutics based on 1,2,3-1H-triazoles: a mini review” (Medchemcomm, 2019):
Blank lines part the entries; values can stand above or below the compound they belong to. Where a SMILES comes first, the peptide text is derived from it.

Assays:
[1] = target: Signal transducer and activator of transcription 3 (Homo sapiens, UniProt P40763); assay: Inhibition of STAT3 (unknown origin)
[2] = target: Telomerase reverse transcriptase (Homo sapiens, UniProt O14746); assay: Inhibition of telomerase activity in human A2780 cells incubated for 10 mins by SYBR Green 1 staining based TRAP assay; format: cell-based
Chain of Telomerase reverse transcriptase (O14746 whole entry): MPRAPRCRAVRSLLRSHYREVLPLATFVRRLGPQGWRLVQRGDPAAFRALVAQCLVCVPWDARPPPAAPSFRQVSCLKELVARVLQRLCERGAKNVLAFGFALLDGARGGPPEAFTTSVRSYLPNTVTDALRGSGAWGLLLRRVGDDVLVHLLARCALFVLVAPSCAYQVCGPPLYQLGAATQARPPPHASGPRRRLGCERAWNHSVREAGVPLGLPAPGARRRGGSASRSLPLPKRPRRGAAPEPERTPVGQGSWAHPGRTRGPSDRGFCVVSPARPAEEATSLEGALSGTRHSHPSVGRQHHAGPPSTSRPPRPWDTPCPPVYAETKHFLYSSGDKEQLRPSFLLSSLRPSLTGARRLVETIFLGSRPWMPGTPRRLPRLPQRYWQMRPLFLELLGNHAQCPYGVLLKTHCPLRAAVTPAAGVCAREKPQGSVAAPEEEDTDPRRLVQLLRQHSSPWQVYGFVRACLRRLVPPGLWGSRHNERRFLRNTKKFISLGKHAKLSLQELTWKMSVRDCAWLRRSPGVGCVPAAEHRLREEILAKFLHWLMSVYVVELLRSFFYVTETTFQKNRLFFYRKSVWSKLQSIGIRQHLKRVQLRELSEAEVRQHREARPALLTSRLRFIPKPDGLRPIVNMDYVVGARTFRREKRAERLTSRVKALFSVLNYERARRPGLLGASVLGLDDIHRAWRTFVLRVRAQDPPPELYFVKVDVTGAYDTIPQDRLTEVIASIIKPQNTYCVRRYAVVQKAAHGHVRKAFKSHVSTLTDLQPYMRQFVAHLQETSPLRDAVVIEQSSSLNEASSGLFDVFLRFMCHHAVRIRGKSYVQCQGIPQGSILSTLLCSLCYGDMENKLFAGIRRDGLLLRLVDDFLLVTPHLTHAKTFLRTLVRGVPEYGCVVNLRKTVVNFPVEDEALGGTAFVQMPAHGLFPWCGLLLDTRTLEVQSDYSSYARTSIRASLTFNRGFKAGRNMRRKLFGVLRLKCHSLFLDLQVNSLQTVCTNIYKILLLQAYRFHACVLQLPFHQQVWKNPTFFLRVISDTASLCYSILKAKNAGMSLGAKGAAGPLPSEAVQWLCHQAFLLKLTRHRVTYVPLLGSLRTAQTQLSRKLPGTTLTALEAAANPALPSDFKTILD

Carbonic anhydrase = assay: Inhibition of carbonic anhydrase (unknown origin); format: protein assay, Homo sapiens
Tyrosinase = target: T1, Tyrosinase (Agaricus bisporus, UniProt O42713); assay: Inhibition of mushroom tyrosinase using L-DOPA as substrate
T1 sequence (O42713 whole entry): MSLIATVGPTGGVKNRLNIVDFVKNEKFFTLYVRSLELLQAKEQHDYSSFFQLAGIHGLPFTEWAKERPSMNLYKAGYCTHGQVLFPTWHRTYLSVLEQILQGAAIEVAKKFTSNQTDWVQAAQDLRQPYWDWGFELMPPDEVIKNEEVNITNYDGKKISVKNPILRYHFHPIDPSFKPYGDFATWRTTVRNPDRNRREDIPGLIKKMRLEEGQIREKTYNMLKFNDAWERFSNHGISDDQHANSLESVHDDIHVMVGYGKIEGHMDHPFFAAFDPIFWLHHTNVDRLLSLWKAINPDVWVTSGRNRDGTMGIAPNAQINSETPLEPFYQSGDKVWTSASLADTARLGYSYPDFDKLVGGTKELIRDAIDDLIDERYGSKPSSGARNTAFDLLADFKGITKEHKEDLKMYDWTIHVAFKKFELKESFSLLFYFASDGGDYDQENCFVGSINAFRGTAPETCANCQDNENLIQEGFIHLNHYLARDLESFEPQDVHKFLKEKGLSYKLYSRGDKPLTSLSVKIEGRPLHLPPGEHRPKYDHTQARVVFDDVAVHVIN

D-amino-acid oxidase = D-amino-acid oxidase (Homo sapiens, UniProt P14920); assay: Inhibition of human DAO
Chain of D-amino-acid oxidase (P14920 whole entry): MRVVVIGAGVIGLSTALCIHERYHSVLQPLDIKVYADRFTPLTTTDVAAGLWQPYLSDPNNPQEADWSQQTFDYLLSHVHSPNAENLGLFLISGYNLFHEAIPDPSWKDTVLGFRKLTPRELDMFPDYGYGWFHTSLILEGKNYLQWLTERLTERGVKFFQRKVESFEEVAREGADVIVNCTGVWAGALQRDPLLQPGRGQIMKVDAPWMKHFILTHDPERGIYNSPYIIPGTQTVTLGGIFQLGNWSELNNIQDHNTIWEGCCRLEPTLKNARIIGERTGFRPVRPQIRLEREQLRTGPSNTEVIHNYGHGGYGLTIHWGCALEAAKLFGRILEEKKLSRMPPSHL

Protease [3] = target: Protease (Human immunodeficiency virus 1, UniProt Q9YQ12, V82A); assay: Inhibition of HIV-1 protease V82A mutant
Chain of Protease (Human immunodeficiency virus 1, UniProt Q9YQ12, V82A) (Q9YQ12 entry or part of it V82A): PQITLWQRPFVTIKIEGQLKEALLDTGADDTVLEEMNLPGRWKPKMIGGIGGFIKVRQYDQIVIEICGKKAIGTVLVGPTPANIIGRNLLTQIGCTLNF

Protease [4] = target: Protease (Human immunodeficiency virus 1, UniProt Q9YQ12, V82F); assay: Inhibition of HIV-1 protease V82F mutant
Chain of Protease (Human immunodeficiency virus 1, UniProt Q9YQ12, V82F) (Q9YQ12 entry or part of it V82F): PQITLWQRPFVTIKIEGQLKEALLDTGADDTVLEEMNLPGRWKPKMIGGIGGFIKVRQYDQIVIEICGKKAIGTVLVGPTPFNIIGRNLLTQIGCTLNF

Protease [5] = target: Protease (Human immunodeficiency virus 1, UniProt Q9YQ12, G48V); assay: Inhibition of HIV-1 protease G48V mutant
Chain of Protease (Human immunodeficiency virus 1, UniProt Q9YQ12, G48V) (Q9YQ12 entry or part of it G48V): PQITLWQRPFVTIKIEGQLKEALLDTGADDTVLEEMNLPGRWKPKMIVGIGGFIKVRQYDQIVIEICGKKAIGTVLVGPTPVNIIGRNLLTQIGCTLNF

Protease [6] = target: Protease (Human immunodeficiency virus 1, UniProt Q9YQ12); assay: Inhibition of HIV-1 protease
Chain of Protease (Human immunodeficiency virus 1, UniProt Q9YQ12) (Q9YQ12 whole entry): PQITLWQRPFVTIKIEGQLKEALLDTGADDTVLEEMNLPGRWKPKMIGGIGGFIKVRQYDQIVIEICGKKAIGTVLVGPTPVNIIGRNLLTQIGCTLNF

Chain of Signal transducer and activator of transcription 3 (P40763 whole entry): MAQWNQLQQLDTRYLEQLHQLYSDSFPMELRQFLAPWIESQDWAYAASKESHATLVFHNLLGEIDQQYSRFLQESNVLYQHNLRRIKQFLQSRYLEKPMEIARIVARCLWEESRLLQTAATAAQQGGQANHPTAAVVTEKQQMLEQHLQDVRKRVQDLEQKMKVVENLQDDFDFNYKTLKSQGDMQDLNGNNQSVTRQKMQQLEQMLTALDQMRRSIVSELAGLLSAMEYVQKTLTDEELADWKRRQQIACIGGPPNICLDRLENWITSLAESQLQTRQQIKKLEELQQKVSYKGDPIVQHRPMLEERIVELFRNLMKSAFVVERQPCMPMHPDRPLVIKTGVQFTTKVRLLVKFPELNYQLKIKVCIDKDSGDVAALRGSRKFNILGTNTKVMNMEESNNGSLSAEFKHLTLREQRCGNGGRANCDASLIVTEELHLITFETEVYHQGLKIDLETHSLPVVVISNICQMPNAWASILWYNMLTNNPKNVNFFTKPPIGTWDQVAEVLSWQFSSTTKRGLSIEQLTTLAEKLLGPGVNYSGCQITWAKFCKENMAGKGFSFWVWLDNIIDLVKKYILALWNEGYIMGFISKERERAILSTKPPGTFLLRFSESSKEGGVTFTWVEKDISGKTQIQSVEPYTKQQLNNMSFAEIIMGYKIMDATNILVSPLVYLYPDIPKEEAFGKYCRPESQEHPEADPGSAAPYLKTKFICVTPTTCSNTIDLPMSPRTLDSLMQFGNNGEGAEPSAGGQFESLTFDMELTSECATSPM

Ki [1]: 21.9 µM
Compound: COC(=O)[C@H](CCCCN)NC(=O)[C@@H](NC(=O)[C@@H](CCCCN)NC(=O)[C@@H](NC(=O)[C@@H](Cc1ccc(OP(=O)(O)O)cc1)NC(C)=O)C(C)C)[C@@H](C)O

EC50 [2]: 17.1 µM
Compound: O=C(CCN1CCCCC1)Nc1ccc(-n2cc(-c3cccc(-c4cn(-c5ccc(NC(=O)CCN6CCCCC6)cc5)nn4)c3)nn2)cc1

Ki (Carbonic anhydrase): 0.0002 µM
Compound: CC(C)[C@H](C(=O)NCc1ccccc1)n1cc(-c2ccc(S(N)(=O)=O)cc2)nn1

IC50 (Tyrosinase): 1500 µM
Compound: CC(C)[C@@H]1NC(=O)[C@@H]2CCCN2C(=O)[C@H](Cc2ccc(O)cc2)NC(=O)[C@@H]2CCCN2C1=O (cyclo(PVPY))

IC50 (Tyrosinase): 500 µM
Compound: CC(C)[C@@H]1NC(=O)[C@@H]2CCCN2C(=O)[C@H](Cc2ccc(OCc3ccccc3)cc2)n2cc(nn2)[C@@H]2CCCN2C1=O

Ki [1]: 7.3 µM
Compound: CC(=O)N[C@H](Cc1ccc(OP(=O)(O)O)cc1)C(=O)N[C@@H](C(=O)N[C@@H]1CCCCn2cc(nn2)C[C@H](C(=O)N[C@@H](Cc2ccccc2)C(N)=O)NC(=O)[C@H]([C@@H](C)O)NC1=O)C(C)C

IC50 (Tyrosinase): 1600 µM
Compound: CC(C)[C@H]1C(=O)N2CCC[C@H]2c2cn(nn2)[C@@H](Cc2ccc(OCc3ccccc3)cc2)C(=O)N2CCC[C@H]2c2cn1nn2

Ki (D-amino-acid oxidase): 1000 µM
Compound: COC(=O)/C(Cc1ccc(O)cc1)=N\OCCc1cn(CC(=O)NC(Cc2ccccc2)C(=O)O)nn1 (stereo not given)

EC50 [2]: 23.5 µM
Compound: CCN(CC)CCC(=O)Nc1ccc(-n2cc(-c3cccc(-c4cn(-c5ccc(NC(=O)CCN(CC)CC)cc5)nn4)c3)nn2)cc1

Compound: COc1ccc(S(=O)(=O)N(CC(C)C)C[C@H](O)[C@@H](Cc2ccccc2)n2cc(COC(=O)N[C@H]3c4ccccc4C[C@H]3O)nn2)cc1
Ki (Protease [3]): 0.0017 µM
Ki (Protease [4]): 0.0017 µM
Ki (Protease [5]): 0.0017 µM
Ki (Protease [6]): 0.0017 µM

EC50 [2]: 13.3 µM
Compound: O=C(CCN1CCCC1)Nc1ccc(-n2cc(-c3cccc(-c4cn(-c5ccc(NC(=O)CCN6CCCC6)cc5)nn4)c3)nn2)cc1

Ki (Carbonic anhydrase): 0.0002 µM
Compound: NS(=O)(=O)c1ccc(-c2cn([C@H](Cc3ccccc3)C(=O)NCCc3ccsc3)nn2)cc1
